Laboratory results: patent US20150291565A1, “INDOLE COMPOUNDS AND THEIR USE AS ANTIMICROBIALS” (Memorial Sloan-Kettering Cancer Center, priority 2012, published 2015)
Like-named read-outs stand apart in the source and are kept apart here.

Columns and labels:
[1] = system: K. pneumoniae ATCC 51503; assay: Broth dilution MIC, K. pneumoniae ATCC 51503; type: cell-based; details: for MIC: Klebsiella pneumoniae
[2] = system: S. aureus BAA-39 (MDR); assay: Broth dilution MIC, S. aureus BAA-39; type: cell-based; details: for MIC: Staphylococcus aureus, BAA39; for MIC S. aureus BAA-39: Table 3, starting at 4 μg/ml
[3] = system: E. faecium ATCC 700221 (VRE); assay: Broth dilution MIC, E. faecium ATCC 700221; type: cell-based
[4] = system: E. faecalis ATCC 29212 (VRE); assay: Broth dilution MIC, E. faecalis ATCC 29212; type: cell-based; details: for MIC E. faecalis ATCC 29212: Table 3, starting at 4 μg/ml
[5] = system: MRSA; assay: Disk diffusion assay, zone of inhibition, MRSA; type: cell-based, Staphylococcus aureus; details: disk diffusion zone of inhibition
[6] = system: E. faecium CT-26; assay: Broth dilution MIC, E. faecium CT-26; type: cell-based; details: for MIC: Enterococcus faecium
[7] = system: S. pneumoniae ATCC 700674 (PRSP); assay: Broth dilution MIC, S. pneumoniae ATCC 700674; type: cell-based; details: for MIC: Streptococcus pneumoniae
[8] = system: S. aureus ATCC 29213 (MSSA); assay: Broth dilution MIC, S. aureus ATCC 29213; type: cell-based; details: for MIC: Staphylococcus aureus
[9] = system: E. coli ECM 1694; assay: Broth dilution MIC, E. coli ECM 1694; type: cell-based; details: for MIC: Escherichia coli
[10] = system: S. pneumoniae ATCC 6301 (PSSP); assay: Broth dilution MIC, S. pneumoniae ATCC 6301; type: cell-based; details: for MIC: Streptococcus pneumoniae
[11] = system: P. aeruginosa ATCC 9027; assay: Broth dilution MIC, P. aeruginosa ATCC 9027; type: cell-based; details: for MIC: Pseudomonas aeruginosa
[12] = system: M. smegmatis (mc2155); assay: Disk diffusion assay, zone of inhibition, M. smegmatis; type: cell-based; details: disk diffusion zone of inhibition
[13] = system: E. coli ATCC 25922; assay: Broth dilution MIC, E. coli ATCC 25922; type: cell-based; details: for MIC: Escherichia coli
[14] = system: S. aureus ATCC 33591 (MRSA); assay: Broth dilution MIC, S. aureus ATCC 33591; type: cell-based; details: for MIC: Staphylococcus aureus; for MIC S. aureus ATCC 33591: Table 3, starting at 4 μg/ml
[15] = system: C. albicans ATCC 14053; assay: Broth dilution MIC, C. albicans ATCC 14053; type: cell-based; details: Candida albicans, ATCC14053; Table 1; range 64 down to 0.12 μg/ml
Method: In vitro Anti-bacterial & Anti-fungal Activity Assay: All test compounds were prepared as 6.4 mg/ml stock solutions in DMSO and further diluted according to the NCCLS M7-A6 (Page 5) document with sterile water or appropriate diluent. A working stock of 256 μg/ml was used to do 1:2 serial dilutions in 96-well plates. […] The inoculums were prepared by making a direct sterile water suspension of isolated colonies from 18 to 24 hr agar plates for all organisms (Mueller Hinton, Blood Agar or SDA plates). Each bacterial suspension was adjusted to read between 0.09 and 0.11 absorbance at 620 nm. […] These were further diluted 1/100 in appropriate broth for inoculating the 96-well plates. The C. albicans suspension was adjusted to read between 70 and 75% Transmittance at 530 nm and then diluted 1/500 in RPMI+MOPS broth. All aerobic bacterial and fungal plates were incubated for 18 hrs. at 35° C. […] Plates were read using a Beckman Automated Plate Reader at 650 nm. Readings were confirmed by visual examination of plates. (See Table 1, Table 2, Table 3, and Table 4). […] It is important to note that positive results against C. albicans are often indicative of broad spectrum antifungal activity, while negative results are not necessarily conclusory of a lack of activity against other fungus.

[16] = system: K. pneumoniae ATCC 13883; assay: Broth dilution MIC, K. pneumoniae ATCC 13883; type: cell-based; details: for MIC: Klebsiella pneumoniae
[17] = system: E. coli (ATCC 25922); assay: Septicemia survival model in neutropenic CD1 mice, E. coli; type: in vivo; details: 10 mg/kg BID SC
[18] = ATCC51503, Table 1, range 64 down to 0.12 μg/ml, read-out: MIC K. pneumoniae ATCC 51503
[19] = ATCC51503, Table 2, broth dilution MIC in ug/ml, read-out: MIC K pneumonia ATCC 51503
[20] = Table 1, range 64 down to 0.12 μg/ml, read-out: MIC S. aureus BAA-39
[21] = Table 2, broth dilution MIC in ug/ml, read-out: MIC S aureus BAA-39 MDR
[22] = Enterococcus faecium, Table 1, range 64 down to 0.12 μg/ml, read-out: MIC E. faecium ATCC 700221
[23] = Table 2, broth dilution MIC in ug/ml, read-out: MIC E faecium ATCC 700221 VRE
[24] = Enterococcus faecalis, Table 1, range 64 down to 0.12 μg/ml, read-out: MIC E. faecalis ATCC 29212
[25] = Table 2, broth dilution MIC in ug/ml, read-out: MIC E faecalis ATCC 29212 VRE
[26] = CT26, Table 1, range 64 down to 0.12 μg/ml, read-out: MIC E. faecium CT-26
[27] = CT26, Table 2, broth dilution MIC in ug/ml, read-out: MIC E faecium CT-25
[28] = Table 1, range 64 down to 0.12 μg/ml, read-out: MIC S. pneumoniae ATCC 700674
[29] = Table 2, broth dilution MIC in ug/ml, read-out: MIC S pneumonia ATCC 700674 PRSP
[30] = Table 1, range 64 down to 0.12 μg/ml, read-out: MIC S. aureus ATCC 29213
[31] = Table 2, broth dilution MIC in ug/ml, read-out: MIC S aureus ATCC 29213 MSSA
[32] = ECM1694, Table 1, range 64 down to 0.12 μg/ml, read-out: MIC E. coli ECM 1694
[33] = ECM1694, Table 2, broth dilution MIC in ug/ml, read-out: MIC E. coli ECM 1693
[34] = ATCC6301, Table 1, range 64 down to 0.12 μg/ml, read-out: MIC S. pneumoniae ATCC 6301
[35] = ATCC6301, Table 2, broth dilution MIC in ug/ml, read-out: MIC S pneumonia ATCC 6301 PSSP
[36] = ATCC 9026 / ATCC 9027, Table 2, broth dilution MIC in ug/ml, read-out: MIC P aeruginosa ATCC 9026
[37] = ATCC9027, Table 1, range 64 down to 0.12 μg/ml, read-out: MIC P. aeruginosa ATCC 9027
[38] = ATCC 25921 / ATCC 25922, Table 2, broth dilution MIC in ug/ml, read-out: MIC E. coli ATCC 25921
[39] = ATCC25922, Table 1, range 64 down to 0.12 μg/ml, read-out: MIC E. coli ATCC 25922
[40] = Table 1, range 64 down to 0.12 μg/ml, read-out: MIC S. aureus ATCC 33591
[41] = Table 2, broth dilution MIC in ug/ml, read-out: MIC S aureus ATCC 33591 MRSA
[42] = ATCC13883, Table 1, range 64 down to 0.12 μg/ml, read-out: MIC K. pneumoniae ATCC 13883
[43] = ATCC13883, Table 2, broth dilution MIC in ug/ml, read-out: MIC K pneumonia ATCC 13883
[44] = Table 4, broth dilution MIC according to CLSI standards (NAEJA)

c1cncc(Nc2ccc(-c3cc4ccc(C5=NCCN5)cc4[nH]3)cc2)c1 [SKI-4]
0.06 µg/mL: MIC [10, 35] | MIC ([10]; ATCC6301, Table 3, starting at 4 μg/ml, read-out: MIC S. pneumoniae ATCC 6301)
1 µg/mL: MIC [2, 20] | MIC [2, 21] | MIC S. aureus BAA-39 [2] | MIC ([8]; Table 3, starting at 4 μg/ml, read-out: MIC S. aureus ATCC 29213) | MIC [8, 31] | MIC [13, 38] | MIC [13, 39] | MIC [14, 40] | MIC [14, 41] | MIC S. aureus ATCC 33591 [14]
≤ 0.12 µg/mL: MIC [9, 32] | MIC [10, 34]
0.12 µg/mL: MIC [9, 33] | MIC ([9]; ECM1694, Table 3, starting at 4 μg/ml, read-out: MIC E. coli ECM 1694)
0.25 µg/mL: MIC [3, 22] | MIC ([3]; Enterococcus faecium, Table 3, starting at 4 μg/ml, read-out: MIC E. faecium ATCC 700221) | MIC [3, 23] | MIC [6, 26] | MIC [6, 27] | MIC ([6]; CT26, Table 3, starting at 4 μg/ml, read-out: MIC E. faecium CT-26)
14 mm: Zone Size MRSA [5]
0.5 µg/mL: MIC [4, 24] | MIC [4, 25] | MIC E. faecalis ATCC 29212 [4] | MIC [7, 28] | MIC [7, 29] | MIC ([7]; Table 3, starting at 4 μg/ml, read-out: MIC S. pneumoniae ATCC 700674)
> 64 µg/mL: MIC [1, 18] | MIC [11, 37] | MIC [15] | MIC [16, 42]
2 µg/mL: MIC [8, 30]
27.6 mm: Zone Size M. smegmatis [12]
64 µg/mL: MIC [1, 19] | MIC [11, 36] | MIC [16, 43]

c1cc(-c2cc3ccc(C4=NCCN4)cc3[nH]2)ccc1NC1CCNCC1 [SKI-6]
64 µg/mL: MIC [1, 19] | MIC [3, 23] | MIC [4, 25] | MIC [6, 26] | MIC [6, 27] | MIC [7, 29] | MIC [11, 36] | MIC [16, 43]
32 µg/mL: MIC [10, 34] | MIC [10, 35] | MIC [13, 38] | MIC [13, 39]
15 mm: Zone Size MRSA [5]
16.3 mm: Zone Size M. smegmatis [12]
4 µg/mL: MIC [9, 32] | MIC [9, 33]
> 64 µg/mL: MIC [1, 18] | MIC [3, 22] | MIC [4, 24] | MIC [7, 28] | MIC [11, 37] | MIC [15] | MIC [16, 42]
8 µg/mL: MIC [2, 20] | MIC [2, 21] | MIC [8, 30] | MIC [8, 31] | MIC [14, 40] | MIC [14, 41]

Nc1ccc(-c2cc3ccc(C4=NCCN4)cc3[nH]2)cc1 [Compound 398657]
8.3 mm: Zone Size MRSA [5]
9.2 mm: Zone Size M. smegmatis [12]

Gentamicin [reference compound]
60%: Percent Survival Day 4 [17] | Percent Survival Day 5 [17] | Percent Survival Day 6 [17] | Percent Survival Day 7 [17]
100%: Percent Survival Day 1 [17] | Percent Survival Day 2 [17]
80%: Percent Survival Day 3 [17]

C[C@@H](O)[C@H]1C(=O)N2C(C(=O)O)=C(SCCN=CN)C[C@H]12 [IMP, reference compound]
2 µg/mL: MIC K. pneumoniae ATCC 51503 [1, 44] | MIC E. coli ECM 1694 [9, 44] | MIC K. pneumoniae ATCC 13883 [16, 44]
1 µg/mL: MIC S. aureus BAA-39 [2] | MIC E. faecalis ATCC 29212 [4] | MIC E. coli ATCC 25922 [13, 44]
4 µg/mL: MIC MDR S. aureus BAA-39 [2, 44] | MIC VRE E. faecalis ATCC 29212 [4, 44] | MIC P. aeruginosa ATCC 9027 [11, 44]
≦0.008 mcg/ml: MIC S. pneumoniae ATCC 6301 ([10]; Table 3, starting at 4 μg/ml)
0.5 µg/mL: MIC PRSP S. pneumoniae ATCC 700674 [7, 44] | MIC E. coli ECM 1694 ([9]; Table 3, starting at 4 μg/ml)
0.06 µg/mL: MIC S. pneumoniae ATCC 700674 ([7]; Table 3, starting at 4 μg/ml) | MIC MSSA S. aureus ATCC 29213 [8, 44]
0.016 µg/mL: MIC S. aureus ATCC 29213 ([8]; Table 3, starting at 4 μg/ml)
>4 µg/mL: MIC E. faecium ATCC 700221 ([3]; Table 3, starting at 4 μg/ml) | MIC VRE E. faecium ATCC 700221 [3, 44] | MIC E. faecium CT-26 ([6]; Table 3, starting at 4 μg/ml) | MIC E. faecium CT-26 [6, 44] | MIC S. aureus ATCC 33591 [14] | MIC MRSA S. aureus ATCC 33591 [14, 44]
0.015 µg/mL: MIC PSSP S. pneumoniae ATCC 6301 [10, 44]
